Assay results: patent publication US20040006070A1, “Intraspinal continuous infusion of midazolam hydrochloride for the treatment of pain” (priority 2002, published 2004)
Counter-ions that a name gives are not always drawn.

Assay: Bloodwork: complete blood count, electrolytes, extended blood chemistry
Assay type: in vivo, sheep
Details: for Total Bili: ref 0.14-0.32; for Creatinine: ref 1-2.7; for Albumin: ref 2.4-3; for K+: ref 3.9-5.4; for Phos: ref 5-7.3; for Total Prot: ref 6-7.9
Description: Indirect blood pressure, pulse recording, pain testing (mechanical stimulus device, cold and warm water baths see description in procedure) and weight were taken on days 1, 3, 7, 15, 22, 29, 36, and 43. Venous blood samples (15 ml drawn from the jugular vein with Vacutainer brand blood collection tubes) for complete blood count, electrolytes, and extended blood chemistry were drawn on days 1, 15, and 43 (mild procedure only light hand restraint necessary).

Cc1ncc2n1-c1ccc(Cl)cc1C(c1ccccc1F)=NC2 [Midazolam, midazolam hydrochloride]
AST (sheep #473, 3 mg/day, Day 1): 239 U/L
Alk Phos (sheep #473, 3 mg/day, Day 1): 41 U/L
BUN (sheep #473, 3 mg/day, Day 1): 10 mg/dL
CPK (sheep #473, 3 mg/day, Day 1): 392 U/L
Cholesterol (sheep #473, 3 mg/day, Day 1): 72 mg/dL
Differential Count: Eosin (sheep #473, 3 mg/day, Day 1): 1%
Differential Count: Lymph (sheep #473, 3 mg/day, Day 1): 39%
Differential Count: Mono (sheep #473, 3 mg/day, Day 1): 1%
Differential Count: Seg (sheep #473, 3 mg/day, Day 1): 59%
Gamma GT (sheep #473, 3 mg/day, Day 1): 69 U/L
Glucose (sheep #473, 3 mg/day, Day 1): 91 mg/dL
Hct (sheep #473, 3 mg/day, Day 1): 33.0%
Hgb (sheep #473, 3 mg/day, Day 1): 11.3 g/dL
MCH (sheep #473, 3 mg/day, Day 1): 9.7 pg
MCHC (sheep #473, 3 mg/day, Day 1): 32.2 G/dl
MCV (sheep #473, 3 mg/day, Day 1): 30.0 fL
Na+ (sheep #473, 3 mg/day, Day 1): 153 mEq/l
Platlet Count (sheep #473, 3 mg/day, Day 1): 666000 µL⁻¹
RBC (sheep #473, 3 mg/day, Day 1): 1.1e+07 µL⁻¹
WBC (sheep #473, 3 mg/day, Day 1): 5800 µL⁻¹
Total Bili (sheep #473, 3 mg/day, Day 1): 0.2 mg/dL
Creatinine (sheep #473, 3 mg/day, Day 1): 1.0 mg/dL
Albumin (sheep #473, 3 mg/day, Day 1): 3.4 g/dL
K+ (sheep #473, 3 mg/day, Day 1): 4.4 mEq/l
Phos (sheep #473, 3 mg/day, Day 1): 6.9 mg/dL
Total Prot (sheep #473, 3 mg/day, Day 1): 6.5 g/dL
ALT (sheep #473, 3 mg/day, Day 15): 1 U/L
AST (sheep #473, 3 mg/day, Day 15): 85 U/L
Alk Phos (sheep #473, 3 mg/day, Day 15): 59 U/L
BUN (sheep #473, 3 mg/day, Day 15): 10 mg/dL
CPK (sheep #473, 3 mg/day, Day 15): 98 U/L
Cholesterol (sheep #473, 3 mg/day, Day 15): 79 mg/dL
Differential Count: Eosin (sheep #473, 3 mg/day, Day 15): 6%
Differential Count: Lymph (sheep #473, 3 mg/day, Day 15): 53%
Differential Count: Mono (sheep #473, 3 mg/day, Day 15): 1%
Differential Count: Seg (sheep #473, 3 mg/day, Day 15): 40%
Gamma GT (sheep #473, 3 mg/day, Day 15): 59 U/L
Glucose (sheep #473, 3 mg/day, Day 15): 74 mg/dL
Hct (sheep #473, 3 mg/day, Day 15): 41.0%
Hgb (sheep #473, 3 mg/day, Day 15): 12.9 g/dL
MCH (sheep #473, 3 mg/day, Day 15): 9.3 pg
MCHC (sheep #473, 3 mg/day, Day 15): 31.5 G/dl
MCV (sheep #473, 3 mg/day, Day 15): 29.6 fL
Na+ (sheep #473, 3 mg/day, Day 15): 152 mEq/l
Platlet Count (sheep #473, 3 mg/day, Day 15): 336000 µL⁻¹
RBC (sheep #473, 3 mg/day, Day 15): 1.25e+07 µL⁻¹
WBC (sheep #473, 3 mg/day, Day 15): 5100 µL⁻¹
Total Bili (sheep #473, 3 mg/day, Day 15): 0.1 mg/dL
Creatinine (sheep #473, 3 mg/day, Day 15): 1.2 mg/dL
Albumin (sheep #473, 3 mg/day, Day 15): 3.7 g/dL
K+ (sheep #473, 3 mg/day, Day 15): 4.6 mEq/l
Phos (sheep #473, 3 mg/day, Day 15): 5.8 mg/dL
Total Prot (sheep #473, 3 mg/day, Day 15): 6.7 g/dL
ALT (sheep #473, 3 mg/day, Day 43): 8 U/L
AST (sheep #473, 3 mg/day, Day 43): 61 U/L
Alk Phos (sheep #473, 3 mg/day, Day 43): 73 U/L
BUN (sheep #473, 3 mg/day, Day 43): 15 mg/dL
CPK (sheep #473, 3 mg/day, Day 43): 82 U/L
Cholesterol (sheep #473, 3 mg/day, Day 43): 78 mg/dL
Differential Count: Eosin (sheep #473, 3 mg/day, Day 43): 2%
Differential Count: Lymph (sheep #473, 3 mg/day, Day 43): 60%
Differential Count: Mono (sheep #473, 3 mg/day, Day 43): 2%
Differential Count: Seg (sheep #473, 3 mg/day, Day 43): 36%
Gamma GT (sheep #473, 3 mg/day, Day 43): 58 U/L
Glucose (sheep #473, 3 mg/day, Day 43): 59 mg/dL
Hct (sheep #473, 3 mg/day, Day 43): 41.5%
Hgb (sheep #473, 3 mg/day, Day 43): 12.9 g/dL
MCH (sheep #473, 3 mg/day, Day 43): 9.4 pg
MCHC (sheep #473, 3 mg/day, Day 43): 31.1 G/dl
MCV (sheep #473, 3 mg/day, Day 43): 30.2 fL
Na+ (sheep #473, 3 mg/day, Day 43): 150 mEq/l
Platlet Count (sheep #473, 3 mg/day, Day 43): 263000 µL⁻¹
RBC (sheep #473, 3 mg/day, Day 43): 1.373e+07 µL⁻¹
WBC (sheep #473, 3 mg/day, Day 43): 3400 µL⁻¹
Total Bili (sheep #473, 3 mg/day, Day 43): 0.0 mg/dL
Creatinine (sheep #473, 3 mg/day, Day 43): 1.5 mg/dL
Albumin (sheep #473, 3 mg/day, Day 43): 3.4 g/dL
K+ (sheep #473, 3 mg/day, Day 43): 5.6 mEq/l
Phos (sheep #473, 3 mg/day, Day 43): 5.3 mg/dL
Total Prot (sheep #473, 3 mg/day, Day 43): 6.4 g/dL
ALT (sheep #498, 10 mg/day, Day 1): 8.0 U/L
AST (sheep #498, 10 mg/day, Day 1): 95 U/L
Alk Phos (sheep #498, 10 mg/day, Day 1): 45 U/L
BUN (sheep #498, 10 mg/day, Day 1): 9.0 Mg/dl
CPK (sheep #498, 10 mg/day, Day 1): 89 U/L
Cholesterol (sheep #498, 10 mg/day, Day 1): 63 Mg/dl
Differential Count: Atyp lym (sheep #498, 10 mg/day, Day 1): 2%
Differential Count: Baso (sheep #498, 10 mg/day, Day 1): 1%
Differential Count: Lymph (sheep #498, 10 mg/day, Day 1): 28%
Differential Count: Mono (sheep #498, 10 mg/day, Day 1): 1%
Differential Count: Seg (sheep #498, 10 mg/day, Day 1): 68%
Gamma GT (sheep #498, 10 mg/day, Day 1): 74 U/L
Glucose (sheep #498, 10 mg/day, Day 1): 131 mg/dL
Hct (sheep #498, 10 mg/day, Day 1): 31.0%
Hgb (sheep #498, 10 mg/day, Day 1): 11.1 g/dL
MCH (sheep #498, 10 mg/day, Day 1): 9.6 pg
MCHC (sheep #498, 10 mg/day, Day 1): 32.0 g/dL
MCV (sheep #498, 10 mg/day, Day 1): 30.1 fL
Na+ (sheep #498, 10 mg/day, Day 1): 151 mEq/l
Platlet Count (sheep #498, 10 mg/day, Day 1): 592000 µL⁻¹
RBC (sheep #498, 10 mg/day, Day 1): 1.153e+07 µL⁻¹
WBC (sheep #498, 10 mg/day, Day 1): 6000 µL⁻¹
Total Bili (sheep #498, 10 mg/day, Day 1): 0.2 mg/dL
Creatinine (sheep #498, 10 mg/day, Day 1): 1.6 mg/dL
Albumin (sheep #498, 10 mg/day, Day 1): 3.9 g/dL
K+ (sheep #498, 10 mg/day, Day 1): 4.4 mEq/l
Phos (sheep #498, 10 mg/day, Day 1): 3.8 Mg/dl
Total Prot (sheep #498, 10 mg/day, Day 1): 6.4 g/dL
ALT (sheep #498, 10 mg/day, Day 15): 7.0 U/L
AST (sheep #498, 10 mg/day, Day 15): 86 U/L
Alk Phos (sheep #498, 10 mg/day, Day 15): 87 U/L
BUN (sheep #498, 10 mg/day, Day 15): 16 Mg/dl
CPK (sheep #498, 10 mg/day, Day 15): 154 U/L
Cholesterol (sheep #498, 10 mg/day, Day 15): 63 Mg/dl
Differential Count: Bands (sheep #498, 10 mg/day, Day 15): 8%
Differential Count: Lymph (sheep #498, 10 mg/day, Day 15): 66%
Differential Count: Mono (sheep #498, 10 mg/day, Day 15): 3%
Differential Count: Seg (sheep #498, 10 mg/day, Day 15): 23%
Gamma GT (sheep #498, 10 mg/day, Day 15): 90 U/L
Glucose (sheep #498, 10 mg/day, Day 15): 78 mg/dL
Hct (sheep #498, 10 mg/day, Day 15): 44.8%
Hgb (sheep #498, 10 mg/day, Day 15): 13.3 g/dL
MCH (sheep #498, 10 mg/day, Day 15): 9.2 pg
MCHC (sheep #498, 10 mg/day, Day 15): 29.7 g/dL
MCV (sheep #498, 10 mg/day, Day 15): 31.1 fL
Na+ (sheep #498, 10 mg/day, Day 15): 151 mEq/l
Platlet Count (sheep #498, 10 mg/day, Day 15): 42000 µL⁻¹
RBC (sheep #498, 10 mg/day, Day 15): 1.439e+07 µL⁻¹
WBC (sheep #498, 10 mg/day, Day 15): 8600 µL⁻¹
Total Bili (sheep #498, 10 mg/day, Day 15): 0.1 mg/dL
Creatinine (sheep #498, 10 mg/day, Day 15): 1.8 mg/dL
Albumin (sheep #498, 10 mg/day, Day 15): 3.4 g/dL
K+ (sheep #498, 10 mg/day, Day 15): 5.1 mEq/l
Phos (sheep #498, 10 mg/day, Day 15): 6.4 Mg/dl
Total Prot (sheep #498, 10 mg/day, Day 15): 6.7 g/dL
ALT (sheep #498, 10 mg/day, Day 43): 8.0 U/L
AST (sheep #498, 10 mg/day, Day 43): 89 U/L
Alk Phos (sheep #498, 10 mg/day, Day 43): 87 U/L
BUN (sheep #498, 10 mg/day, Day 43): 13 Mg/dl
CPK (sheep #498, 10 mg/day, Day 43): 203 U/L
Cholesterol (sheep #498, 10 mg/day, Day 43): 67 Mg/dl
Differential Count: Eosin (sheep #498, 10 mg/day, Day 43): 3%
Differential Count: Lymph (sheep #498, 10 mg/day, Day 43): 63%
Differential Count: Mono (sheep #498, 10 mg/day, Day 43): 1%
Differential Count: Seg (sheep #498, 10 mg/day, Day 43): 33%
Gamma GT (sheep #498, 10 mg/day, Day 43): 65 U/L
Glucose (sheep #498, 10 mg/day, Day 43): 77 mg/dL
Hct (sheep #498, 10 mg/day, Day 43): 34.7%
Hgb (sheep #498, 10 mg/day, Day 43): 10.5 g/dL
